# In article PMC8998802 (Pain, 2019):
# Target: δ opioid receptor (DOR) (Homo sapiens, UniProt P41143)
# Assay: competition radioligand binding vs 3H-diprenorphine, DOR-CHO membranes
# δ opioid receptor (DOR), sequence (P41143 whole entry): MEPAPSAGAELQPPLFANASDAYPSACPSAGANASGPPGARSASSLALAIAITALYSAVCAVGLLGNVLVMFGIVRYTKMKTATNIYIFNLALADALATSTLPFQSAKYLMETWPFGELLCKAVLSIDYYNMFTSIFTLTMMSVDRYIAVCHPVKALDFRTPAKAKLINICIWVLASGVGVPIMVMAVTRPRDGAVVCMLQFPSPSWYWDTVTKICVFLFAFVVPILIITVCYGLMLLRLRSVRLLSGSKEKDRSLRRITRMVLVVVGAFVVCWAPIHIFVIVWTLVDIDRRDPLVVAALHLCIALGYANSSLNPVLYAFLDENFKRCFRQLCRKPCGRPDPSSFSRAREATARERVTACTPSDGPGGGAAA
smiles,measurement,value
"Cc1noc(C)c1CC(=O)NCc1nc(NCCCc2ccccc2)c2ccccc2n1 [IPPQ, 2-(3,5-dimethylisoxazol-4-yl)-N-((4-((3-phenylpropyl)amino)quinazolin-2-yl)methyl)acetamide]",Ki,> 1000 nM
